Measurements reported in article PMC5583658, “6,7-dimethoxy-1,2,3,4-tetrahydro-isoquinoline-3-carboxylic acid attenuates heptatocellular carcinoma in rats with NMR-based metabolic perturbations” (Future Science OA, 2017).

How the values were obtained:
Assay type in all cases: in vivo, albino Wistar rats
[1] = tested on: diethylnitrosamine-induced hepatocarcinogenic rats; assay: ALT and AST in plasma of DEN-induced HCC rats; details: DEN+5-FU 10 mg/kg intraperitoneally, 15 days, mean ± SD, n = 6
Protocol: (§1) All animals were randomly divided into five groups of six animals each. Drugs were suspended in 0.25% CMC, subjected to 28 days’ treatment orally and divided as follows: Group I: 0.25% CMC (2 ml/kg), Group II: DEN (8 mg/kg, intraperitoneally), Group III: DEN+5-fluorouracil (5-FU, 10 mg/kg, intraperitoneally), Group IV: DEN+M1 (50 mg/kg, orally) and Group V: DEN+M1 (100 mg/kg, orally). The procedure to induce HCC was adopted from a paper by Song et al. where it is shown that DEN produces HCC at 8 mg/kg intraperitoneal injection for 28 days to albino Wistar rats. After initial 1 week of adaptive inhabitation, all rats of group II–V were administered with DEN (8 mg/kg, intraperitoneally) for 28 days. After 28 days, 5-FU and M1 were given for 15 days as mentioned above for group III–V. At the end of the experimental period, animals were sacrificed by cervical decapitation and livers were dissected out immediately, rinsed in ice cold saline and stored at -20°C for further studies. The serum was collected, processed and stored for further analysis.
(§2) Liver function biomarkers like aspartate aminotransferase (AST), alanine aminotransferase (ALT) were also measured in serum using commercially available kit from Ebra Diagonesis Pvt Ltd, Germany. The oxidative parameters like superoxide dismutase (SOD), thiobarbituric acid reactive substances (TBARS), protein carbonyl (PC), SOD [14], tissue catalase (CAT) and glutathione (GSH) levels were estimated in liver tissue in the similar experiment. The total protein content of each sample was measured using the Bradford reagent and bovine serum albumin was used as a standard. Conjugated bilirubin and biliverdin in liver were measured as per the following procedure stated earlier in the literature with slight modifications.

[2] = tested on: diethylnitrosamine-induced hepatocarcinogenic rats; assay: Oxidative stress parameters (SOD, CAT, GSH, PC, MDA) in liver of DEN-induced HCC rats; details: DEN+5-FU 10 mg/kg intraperitoneally, 15 days, mean ± SD, n = 6
Protocol: as §1, §2

[3] = tested on: diethylnitrosamine-induced hepatocarcinogenic rats; assay: Bilirubin and biliverdin in liver of DEN-induced HCC rats
Protocol: as §1, §2

[4] = tested on: diethylnitrosamine-induced hepatocarcinogenic rats; assay: Histopathological studies of liver (hematoxylin and eosin); details: DEN+5-FU 10 mg/kg intraperitoneally; 40X
Protocol: as §1
Histopathological studies were also performed to find out the morphological changes of liver cells after M1 administration. Liver tissues from each group were assessed for their morphological changes using hematoxylin and eosin staining. The tissues were preserved in 10% formalin overnight. […]

[5] = tested on: diethylnitrosamine-induced hepatocarcinogenic rats; assay: 1H-NMR-based serum metabolic profiling; details: rat serum; DEN+5-FU 10 mg/kg intraperitoneally
Protocol: as §1
All serum samples were thawed at room temperature, 250 μl of serum was taken and mixed with 250 μl of 0.9% saline sodium-phosphate buffer of strength 50 mM, pH 7.4 prepared in D2O. Then, the samples were centrifuged at 10,000 rpm for 5 min to remove any precipitates before acquiring the NMR data. A total 400 μl of the supernatant sample was used in 5 mm NMR tubes (Wilmad Glass, USA) for data acquisition with a co-axial insert containing the known concentration of TSP (sodium salt of 3-trimethylsilyl-(2,2,3,3-d4)-propionic acid) i.e. 0.1% was used as external standard reference to aid metabolite quantification for NMR experiment. Deuterium oxide (D2O; as a co-solvent and to provide a deuterium field/frequency lock) and sodium salt of trimethylsilylpropionic acid-d4 (TSP) used for NMR experiments, were purchased from Sigma-Aldrich (RI, USA).
All NMR spectra were recorded at 298 K on Bruker Biospin Avance-III 800 MHz NMR spectrometer operating at proton frequency of 800.21 MHz, equipped with CryoProbe and an actively shielded gradient unit with a maximum gradient-strength output of […]. The raw NMR data were processed in Topspin-2.1 (Bruker NMR data Processing Software). For each serum sample, one-dimensional ^1H-NMR and diffusion edited ^1H NMR spectra were recorded using the Carr–Purcell–Meiboom–Gill (CPMG) pulse sequence (cpmgpr1d, standard Bruker pulse program) with pre-saturation of the water peak through irradiating it continuously during the recycle delay (RD) of 5 sec, and the bipolar pulse pair longitudinal eddy current delay (BPP-LED) sequence, respectively. Each CPMG spectrum consisted of the accumulation of 128 scans and lasted for approximately 15 minutes. To remove broad signals from triglycerides, proteins, cholesterols and phospholipids, a total spin–spin relaxation time of 60 ms (n = 300 and 2τ=[…]) with a line broadening factor of 0.3 Hz was applied. For diffusion edited (DE)^1H NMR pulse sequence, the square gradients of 70% of the maximum gradient strength (56 G/cm) and 2 ms duration (followed by a delay of 200 μs to allow for the decay of eddy currents) were used. Diffusion time of 120 ms was used to attenuate the signals from low molecular weight compounds without affecting the lipid signals. All the spectra were processed using Topspin-2.1 (Bruker NMR data Processing Software) using standard Fourier Transformation (FT) procedure following manual phase and baseline-correction. Prior to FT, each FID was zero-filled to 4096 data points and a sine-bell apodisation function was applied. After FT, the chemical shifts were referenced internally to methyl peak of L-lactate (at δ=1.33 ppm). All recorded spectra were visually inspected for acceptability and subjected to multivariate statistical analysis to identify the altered metabolic pattern. […]

[6] = DEN+5-FU 10 mg/kg intraperitoneally, 15 days, mean ± SD, n = 6

## O=c1[nH]cc(F)c(=O)[nH]1 [5-FU, 5-fluorouracil, reference compound]
[1]
  ALT: 68.36 ± 5.32 U/L
  AST: 61.58 ± 4.17 U/L
[2]
  CAT: 9.30 ± 0.35 nM of H2O2/min/μg of protein
  MDA: 46.24 ± 0.26 nM/μg of protein
  PC: 0.35 ± 0.07 μM/μg of protein
  Reduced GSH: 7.30 ± 0.39 μM/μg of protein
  SOD: 6.99 ± 0.43 U/μg of protein
[3]; 5-FU-treated rats, text value (toxic ∼60 ng)
  bilirubin level: ~35 ng
[3]; [6]
  Bilirubin: 34.70 ± 2.12 ng/μg of protein
  Biliverdin: 18.39 ± 3.11 ng/μg of protein
[4]
  liver histopathology: less ruptured and denatured cells (RC and DC) than toxic control
[5]
  Variation with respect to DEN: Acac (chemical shift 2.28): ↑
  Variation with respect to DEN: Ace (chemical shift 1.92): ↓
  Variation with respect to DEN: Acet (chemical shift 2.23): ↑
  Variation with respect to DEN: Ala (chemical shift 1.48): ↓
  Variation with respect to DEN: Betaine (chemical shift 3.265): ↓
  Variation with respect to DEN: Chol (chemical shift 3.22): ↓
  Variation with respect to DEN: Cr (chemical shift 3.03): ↑
  Variation with respect to DEN: Glucose (chemical shift 3.23–3.92, 4.63, 5.21): ↓
  Variation with respect to DEN: L1 (LDL) (chemical shift 0.83–0.87): ↓
  Variation with respect to DEN: L2 (VLDL) (chemical shift 0.87–0.90): ↑
  Variation with respect to DEN: L3 (LDL) (chemical shift 1.23–1.27): ↓
  Variation with respect to DEN: L4 (VLDL) (chemical shift 1.27–1.30): ↑
  Variation with respect to DEN: L6 (chemical shift 2.00): ↓
  Variation with respect to DEN: L8 (chemical shift 2.74): ↓
  Variation with respect to DEN: L9 (chemical shift 5.28): ↓
  Variation with respect to DEN: Lys (chemical shift 1.89): ↓
  Variation with respect to DEN: NAG (chemical shift 2.02): ↑
  Variation with respect to DEN: OAG (chemical shift 2.13): ↑
  Variation with respect to DEN: Pyr (chemical shift 2.37): ↓
  Variation with respect to DEN: Tyr (chemical shift 6.89): ↓
